# Test results from patent US4786755A, “Diphenic acid monoamides” (Warner-Lambert Company, priority 1986, dated 1988).
# Where two headings read alike, the source gives them in different places.
# System: Human Basophils
# Assay: Histamine Release from Human Basophils (HHB)
# Format: cell-based
# Details: for inhibition at 33 µM: Homo sapiens, 33 μM cpd.
# Excerpt: Histamine Release from Human Basophils (HHB) Procedure for Quantitating Active Histamine Release, and its Inhibition by Drugs, from Basophils of Human Blood Using an Automated Fluorometric Histamine Assay
# Mediator (histamine) release from human blood basophils is an assay which provides a model for evaluating potential antiallergy (mediator release inhibitors) compounds.
# Blood from allergic donors is obtained from volunteers through the Community Research Clinic. The leukocytes are removed after Hespan® sedimentation, washed and concentrated using calcium and magnesium free Hepes buffered saline and resuspended in Hepes Hepes buffered saline with 1 mM calcium and magnesium added back. The cells are incubated briefly at room temperature with either buffer alone (for measuring spontaneous release and challenge agent stimulated release) 6% perchloric acid (for measuring total available histamine in the cells) or drug at various concentrations. The cells are then either treated with buffer alone (to measure control spontaneous and drug effect on spontaneous release) or appropriate challenge agent (e.g., anti-IgE, antigen) mixed and incubated for 45 minutes at 37° C. in a shaking water bath. The reaction is stopped by centrifugation and the supernate is poured into autoanalyzer sample cups and samples assayed for assayed for histamine content using an automated fluorometric assay. By comparing the histamine release of drug-treated cells and the challenge agent controls, drug inhibition of mediator (histamine) release can be evaluated.
# Histamine release is induced by (1) an aqueous antigen extract (short rageweed or house dust), or (2) anti-IgE antisera. Whole human blood is obtained from volunteers through the Community Research Clinic (CRC-92). Volunteers are chosen on the basis of adequate histamine release induced by antigen, or antiIgE antisera challenge. Leukocytes are incubated in vitro with the challenge agents at several concentrations. Dose-response curves for each volunteer, using each challenge agent, are generated. Test compounds are evaluated for inhibition of a near maximal response to one or more challenge agents. By including appropriate controls, it is possble to measure the effect of the test compound, at various concentrations, in several ways: (1) the effect of the compound on histamine release for each challenge agent; (2) the effect of the test compound on spontaneous release of histamine in the absence of the challenge agent (buffer alone); and (3) the effect of the test compound on the histamine assay.
# Histamine is assayed using an automated continuous flow system which quantitates samples of 0.4 ml or more in volume, and concentrations of approximately 0.5 ng/ml or more. The rate of analysis is 30 samples/hour.
# Methods of preparing leukocytes for this assay are described by Theuson, et al, J. of Immunology, Vol. 123, p. 426 (1979).
# Samples are run in triplicate, using either 1.5 ml polypropylene capped reaction tubes, or 5.0 ml plastic uncapped tubes. Test compounds and challenge agents are prepared in HACM buffer, as described above. Fixed volume pipettes are used.
# Test compound or vehicle control is added to three reaction tubes at 1.5×the final desired concentration (i.e., 400 μl of test compound per 600 μl total reaction volume). One hundred μl of cells is added to each tube and the mixture is incubated for eight minutes at room temperature, and two minutes at 37° C. before antigen or other stimulus challenge. One hundred μl of the challenge agent at 6× the final concentration is then added, and the final mixture is incubated at 37° C. for 45 minutes in a shaking water bath. This ensures that the cell preparation is constantly in suspension. The reaction is stopped by centrifugation at 2000 RPM for three minutes at 4° C. The supernate (.perspectiveto.500 μl) is poured into 2.0 ml autoanalyzer beakers and assayed for histamine by the fluorometric method. […]
# [1] = Tripeptide challenge, read-out: HHB (Tripeptide), percent inhibition of histamine release
# [2] = antigen challenge, read-out: HHB (antigen), percent inhibition of histamine release
SMILES,inhibition at 33 µM [1] [%],inhibition at 33 µM [2] [%],"HHB (antigen), percent inhibition of histamine release @ 10 (@ 10, antigen challenge)"
"O=C(O)c1ccccc1-c1ccccc1C(=O)Nc1ccc(CCc2ccc(Cl)c(Cl)c2)cc1 [Example 3, [1,1'-Biphenyl]-2-carboxylic acid, 2'-[[[4-[2-(3,4-dichlorophenyl)ethyl]phenyl]amino]carbonyl]-]",93,94,–
"O=C(O)c1ccccc1-c1ccccc1C(=O)Nc1cccc(CCc2ccc(Cl)c(Cl)c2)c1 [Example 4, [1,1'-Biphenyl]-2-carboxylic acid, 2'-[[[3-[2-(3,4-dichlorophenyl)ethyl]phenyl]amino]carbonyl]-]",97,101,–
O=C(O)c1ccccc1-c1ccccc1C(=O)Nc1ccc(Cc2ccc(Cl)c(Cl)c2)cc1 [Example 9],100,87,–
"CN(C(=O)c1ccccc1-c1ccccc1C(=O)O)c1ccc(CCc2ccc(Cl)c(Cl)c2)cc1 [Example 5, [1,1'-Biphenyl]-2-carboxylic acid, 2'-[[[4-[2-(3,4-dichlorophenyl)ethyl]phenyl]methylamino]carbonyl]-]",83,72,–
"O=C(O)c1ccccc1-c1ccccc1C(=O)Nc1ccc(CCCCc2ccc(Cl)c(Cl)c2)cc1 [Example 15, [1,1'-Biphenyl]-2-carboxylic acid, 2'-[[[4-[4-(3,4-dichlorophenyl)butyl]phenyl]amino]carbonyl]-]",-17,–,39
"O=C(O)c1ccccc1-c1ccccc1C(=O)Nc1ccc(CCCc2ccc(Cl)c(Cl)c2)cc1 [Example 1, [1,1'-Biphenyl]-2-carboxylic acid, 2'-[[[4-[3-(3,4-dichlorophenyl)propyl]phenyl]amino]carbonyl]-]",72,72,–
"O=C(O)c1ccccc1-c1ccccc1C(=O)Nc1ccc(CCCCCc2ccccc2)cc1 [Example 21, [1,1'-Biphenyl]-2-carboxylic acid, 2'-[[[4-(5-phenylpentyl)phenyl]amino]carbonyl]-]",93,91,–
"O=C(O)c1ccccc1-c1ccccc1C(=O)Nc1ccc(CCCc2ccccc2)cc1 [Example 16, [1,1'-Biphenyl]-2-carboxylic acid, 2'-[[[4-(3-phenylpropyl]phenyl]amino]carbonyl]-]",84,–,–
CN(C(=O)c1ccccc1-c1ccccc1C(=O)O)c1ccc(CCc2ccc(Cl)cc2)cc1 [Example 8],111,67,–
"O=C(O)c1ccccc1-c1ccccc1C(=O)Nc1ccc(CCCCc2ccccc2)cc1 [Example 19, [1,1'-Biphenyl]-2-carboxylic acid, 2'-[[[4-(4-phenylbutyl)phenyl]amino]carbonyl]-]",90,59,–
"COc1ccc(CCc2ccc(NC(=O)c3ccccc3-c3ccccc3C(=O)O)cc2)cc1OC [Example 7, [1,1'-Biphenyl]-2-carboxylic acid, 2'-[[[4-[2-(3,4-dimethoxyphenyl)ethyl]phenyl]amino]carbonyl]-]",93,-5,–
O=C(O)c1ccccc1-c1ccccc1C(=O)Nc1ccc(OCCCc2ccccc2)cc1 [Example 2],96,12,–
